According to patent US10221163B2 (priority 2015, dated 2019):
Read-outs that look alike come from different tables or passages of the source.

Assays:
[1] = test system: Pseudomonas aeruginosa efflux+ (MB9798), IMP-1; type: cell-based; design: Concentration of metallo-β-lactamase inhibitor which restores susceptibility of efflux + (MB9798) strain to imipenem: unit not given here; settings: C, D serine β-lactamase inhibitor closely related to relebactam; for P. aeruginosa expressing IMP-1, efflux + (MB9798) MITC95: concentration restoring susceptibility to imipenem at 2 μg/mL in the presence of a class A; for Concentration of metallo-β-lactamase inhibitor which restores susceptibility of efflux + (MB9798) strain to imipenem: imipenem at 2 μg/mL, in the presence of a class A
Method in brief: (§1)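 PAO1 pair, broth microdilution; fixed β-lactam (imipenem/ceftazidime) at ~CLSI breakpoint + fixed class A/C BLI for AmpC; serial MBLi titration; endpoint = MBLi conc. restoring susceptibility; MB9798:MB9799 ratio = efflux liability.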

[2] = test system: Pseudomonas aeruginosa MB9798 vs MB9799
Method in brief: as §1

[3] = target: IMP-1 (Serratia marcescens, UniProt P52699); assay: biochemical; type: biochemical; settings: CCF2-FA substrate, 2 pM enzyme, 2 hours at 25° C.
Method in brief: (§2)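 Enzyme activity was measured by fluorescence using CCF2-FA, a cephalosporin-linked 7-hydroxycoumarin/fluorescein substrate, with inhibitor, metallo-β-lactamase and substrate incubated together for 2 hours at 25° C. IC50 came from a 4-parameter fit of inhibition versus log inhibitor concentration.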

[4] = target: NDM-1 (Klebsiella pneumoniae, UniProt C7C422); assay: biochemical; type: biochemical; settings: fluorescence assay, CCF2-FA substrate, 1 pM enzyme, 2 hours at 25° C.; read-out: NDM-1 IC50
Method in brief: as §2

[5] = target: VIM-1 (Pseudomonas aeruginosa (strain ATCC 15692 / DSM 22644 / CIP 104116 / JCM 14847 / LMG 12228 / 1C / PRS 101 / PAO1), UniProt A0A0F7KYQ8); assay: biochemical; settings: CCF2-FA substrate, 30 pM enzyme, 2 hours at 25° C.
Method in brief: as §2

[6] = test system: Pseudomonas aeruginosa efflux− (MB9799), IMP-1; type: cell-based; settings: C, D serine β-lactamase inhibitor closely related to relebactam; for P. aeruginosa expressing IMP-1, efflux − (MB9799) MITC95: concentration restoring susceptibility to imipenem at 2 μg/mL in the presence of a class A; for Concentration of metallo-β-lactamase inhibitor which restores susceptibility of efflux − (MB9799) strain to imipenem: imipenem at 2 μg/mL, in the presence of a class A
Method in brief: as §1

[7] = test system: Serratia marcescens expressing IMP-1 (CL5741); type: cell-based; settings: for Serratia marcescens expressing IMP-1 (CL5741) MITC95: with imipenem 1 μg/ml, 95% inhibition of bacterial growth; for Serratia marcescens MITC95: IMP-1 strain CL5741, with imipenem 1 μg/ml, 95% inhibition of growth
Method in brief: (§3)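 Imipenem 1 μg/ml + inhibitor; MBL-expressing clinical strains in 1.1×CAMHB, inoculum from saline suspension diluted 1:100; 35° C, 22–24 h; absorbance read-out.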

[8] = test system: Escherichia coli expressing NDM-1 (CLB30005, CLB30016); type: cell-based; settings: with imipenem 1 μg/ml; for Escherichia coli expressing NDM-1 (CLB30016) MITC95: 95% inhibition of bacterial growth; for Escherichia coli MITC95: NDM-1 strain, 95% inhibition of growth
Method in brief: as §3

[9] = test system: Klebsiella pneumoniae expressing VIM-1 (IHMA599644); type: cell-based; settings: for Klebsiella pneumoniae expressing VIM-1 (IHMA599644) MITC95: with imipenem 1 μg/ml, 95% inhibition of bacterial growth; for Klebsiella pneumoniae MITC95: VIM-1 strain IHMA599644, with imipenem 1 μg/ml, 95% inhibition of growth
Method in brief: as §3

[10] = ratio MITC95 PA_9798/MITC95 PA_9799
[11] = fold difference between efflux+ (MB9798) and efflux− (MB9799) strains, imipenem at 2 μg/mL
[12] = fluorescence assay, read-out: IMP-1 IC50
[13] = fluorescence assay, read-out: VIM-1 IC50

Chain of NDM-1 (C7C422 whole entry, looked up, species assumed): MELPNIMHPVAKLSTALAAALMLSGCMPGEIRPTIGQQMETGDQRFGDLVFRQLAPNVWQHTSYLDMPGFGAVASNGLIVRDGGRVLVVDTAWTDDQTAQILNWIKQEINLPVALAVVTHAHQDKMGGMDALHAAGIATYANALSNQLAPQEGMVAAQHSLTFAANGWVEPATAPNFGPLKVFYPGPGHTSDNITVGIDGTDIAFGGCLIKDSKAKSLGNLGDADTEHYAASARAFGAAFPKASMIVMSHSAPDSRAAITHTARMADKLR
Chain of IMP-1 (P52699 whole entry, looked up, species assumed): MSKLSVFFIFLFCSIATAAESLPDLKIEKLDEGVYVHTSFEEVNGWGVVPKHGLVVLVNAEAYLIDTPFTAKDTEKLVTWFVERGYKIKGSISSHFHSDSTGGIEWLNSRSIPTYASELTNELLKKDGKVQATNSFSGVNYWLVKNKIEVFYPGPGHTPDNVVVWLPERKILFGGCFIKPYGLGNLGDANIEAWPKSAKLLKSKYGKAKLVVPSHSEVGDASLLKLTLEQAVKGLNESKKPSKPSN

| Compound | P. aeruginosa expressing IMP-1, efflux + (MB9798) MITC95 [1] | Efflux ratio [2, 10] | IC50 ([3]; IMP-1 IC50, fluorescence assay) | IC50 [4] | IC50 ([5]; VIM-1 IC50, fluorescence assay) | P. aeruginosa expressing IMP-1, efflux − (MB9799) MITC95 [6] | Serratia marcescens expressing IMP-1 (CL5741) MITC95 [7] | Escherichia coli expressing NDM-1 (CLB30016) MITC95 [8] | Klebsiella pneumoniae expressing VIM-1 (IHMA599644) MITC95 [9] | Concentration of metallo-β-lactamase inhibitor which restores susceptibility of efflux + (MB9798) strain to imipenem [1] | Efflux ratio [2, 11] | Concentration of metallo-β-lactamase inhibitor which restores susceptibility of efflux − (MB9799) strain to imipenem [6] | Serratia marcescens MITC95 [7] | Escherichia coli MITC95 [8] | Klebsiella pneumoniae MITC95 [9] | IC50 [3, 12] | IC50 [5, 13] |
| --- | --- | --- | --- | --- | --- | --- | --- | --- | --- | --- | --- | --- | --- | --- | --- | --- | --- |
| Nc1nc2c(-c3ccc(S(=O)(=O)NC[C@@H]4CCNC4)c(S(N)(=O)=O)c3-c3nnn[nH]3)cccc2s1 [Example 75, 4-(2-amino-1,3-benzothiazol-4-yl)-N^1-[(3R)-pyrrolidin-3-ylmethyl]-3-(1H-tetrazol-5-yl)benzene-1,2-disulfonamide] | 0.7813 µM | 1.00 | 0.158 nM | 0.0207 nM | 0.115 nM | 0.7813 µM | 1.563 µM | 1.563 µM | 3.125 µM |  |  |  |  |  |  |  |  |
| C[C@@H](CN)NS(=O)(=O)c1ccc(-c2cccc3sc(N)nc23)c(-c2nn[nH]n2)c1S(N)(=O)=O [Example 389, 4-(2-amino-1,3-benzothiazol-4-yl)-N^1-[(1S)-2-amino-1-methylethyl]-3-(2H-tetrazol-5-yl)benzene-1,2-disulfonamide] |  |  | 1.81 nM | 0.289 nM | 0.744 nM |  |  |  |  | 1.563 | 1.00 | 1.563 | 3.125 µM | 3.125 µM | 3.125 µM |  |  |
| NCc1nc2cc(-c3ccc(S(=O)(=O)N[C@@H](CN)CO)c(S(N)(=O)=O)c3-c3nn[nH]n3)ccc2[nH]1 [Example 474, (S)-N1-(1-amino-3-hydroxypropan-2-yl)-4-(2-(aminomethyl)-1H-benzo[d]imidazol-5-yl)-3-(2H-tetrazol-5-yl)benzene-1,2-disulfonamide] |  |  |  | 0.104 nM |  |  |  |  |  | 0.7813 | 1.00 | 0.7813 | 1.563 µM | 0.7813 µM | 1.563 µM | 0.522 nM | 0.141 nM |
| C[C@@H](N)c1nc2c(-c3ccc(S(=O)(=O)N[C@@H]4CCNC4)c(S(N)(=O)=O)c3-c3nn[nH]n3)cccc2[nH]1 [Example 273, 4-(2-((R)-1-aminoethyl)-1H-benzo[d]imidazol-4-yl)-N1-((R)-pyrrolidin-3-yl)-3-(2H-tetrazol-5-yl)benzene-1,2-disulfonamide] | 0.7813 µM | 1.00 |  | 0.0565 nM |  | 0.7813 µM |  |  |  |  |  |  | 1.563 µM | 1.563 µM | 1.563 µM | 1.41 nM | 0.124 nM |
| NCCNS(=O)(=O)c1ccc(-c2cccc3c2CCCN3)c(-c2nn[nH]n2)c1S(N)(=O)=O [Example 455, N1-(2-Aminoethyl)-4-(1,2,3,4-tetrahydroquinolin-5-yl)-3-(2H-tetrazol-5-yl)benzene-1,2-disulfonamide] |  |  |  | 0.216 nM |  |  |  |  |  | 12.5 | 8.00 | 1.563 | 3.125 µM | 1.563 µM | 3.125 µM | 0.53 nM | 0.163 nM |
| NCCCNS(=O)(=O)c1ccc(-c2cc(F)cc3[nH]c(N)nc23)c(-c2nn[nH]n2)c1S(N)(=O)=O [Example 402] |  |  |  | 0.0524 nM |  |  |  |  |  | 0.7813 | 1.00 | 0.7813 | 0.7813 µM | 0.3906 µM | 1.563 µM | 0.318 nM | 0.159 nM |
| NC(=O)[C@@H](N)CNS(=O)(=O)c1ccc(-c2cccc3[nH]c(N)nc23)c(-c2nn[nH]n2)c1S(N)(=O)=O [Example 189, (2S)-2-amino-3-(4-(2-amino-1H-benzo[d]imidazol-4-yl)-2-sulfamoyl-3-(2H-tetrazol-5-yl)phenylsulfonamido)propanamide] | 0.7813 µM | 0.50 |  | 0.0718 nM |  | 1.563 µM | 1.563 µM | 0.7813 µM | 3.125 µM |  |  |  |  |  |  | 0.615 nM | 0.216 nM |
| NCc1nc2c(-c3ccc(S(=O)(=O)NC[C@H](O)CN)c(S(N)(=O)=O)c3-c3nn[nH]n3)cccc2[nH]1 [Example 299, (R)—N1-(3-amino-2-hydroxypropyl)-4-(2-(aminomethyl)-1H-benzo[d]imidazol-4-yl)-3-(2H-tetrazol-5-yl)benzene-1,2-disulfonamide] | 0.7813 µM | 1.00 |  | 0.265 nM | 0.154 nM | 0.7813 µM |  |  |  |  |  |  | 1.563 µM | 0.7813 µM | 1.563 µM | 2.65 nM |  |
| Nc1nc2c(-c3ccc(S(=O)(=O)N[C@@]4(CO)CCNC4)c(S(N)(=O)=O)c3-c3nnn[nH]3)cccc2[nH]1 [Example 176, (S)-4-(2-amino-1H-benzo[d]imidazol-4-yl)-N1-(3-(hydroxymethyl)pyrrolidin-3-yl)-3-(1H-tetrazol-5-yl)benzene-1,2-disulfonamide] | 0.7813 µM | 1.00 |  | 0.0524 nM |  | 0.7813 µM | 0.7813 µM | 0.3906 µM | 1.563 µM |  |  |  |  |  |  | 0.728 nM | 0.192 nM |
| NS(=O)(=O)c1c(S(=O)(=O)N[C@H]2C[C@H](N)C2)ccc(-c2cccc3[nH]cnc23)c1-c1nn[nH]n1 [Example 200, N^1-((1r,3r)-3-aminocyclobutyl)-4-(1H-benzo[d]imidazol-4-yl)-3-(2H-tetrazol-5-yl)benzene-1,2-disulfonamide] | 0.7813 µM | 1.00 |  | 0.0527 nM |  | 0.7813 µM | 1.563 µM | 1.563 µM | 3.125 µM |  |  |  |  |  |  | 0.276 nM | 0.114 nM |
